Results: PMC4117768, “Conjugation with polyamines enhances the antibacterial and anticancer activity of chloramphenicol” (Nucleic Acids Research, 2014)
Where “and” joins values, the source holds several entries; their conditions need not be identical. Identical values can stand only once. Like-named read-outs stand apart in the source and are kept apart here. Marks after values point to notes of the source that are not given here.

Columns and labels:
wild-type E. coli = test: Growth inhibition of bacterial cell cultures; assay type: cell-based; settings: for IC50: Escherichia coli, read-out: IC50 (inhibit the growth by half); for IC50/IC50(puro): wild-type E. coli, IC50(puro) = concentration causing 50% inhibition in peptide-bond formation at 2 mM puromycin
Description: (§1) S. aureus or E. coli cells (400 μl of a 0.700 OD560 preculture) containing wild-type or mutant ribosomes were added in 3.6 ml of LB (Luria Broth) medium and grown at 37°C in the presence or absence of CAM or PA–CAM conjugates until the optical density of the control culture (grown in the absence of drug) reached the value 0.700 at 560 nm. From the growth curves, the IC50 value for each strain was estimated as the concentration of the drug that is required to inhibit the growth by half.

wild-type S. aureus = test: Growth inhibition of bacterial cell cultures; assay type: cell-based; settings: Staphylococcus aureus, read-out: IC50 (inhibit the growth by half)
Description: as §1

[1] = test system: human peripheral blood cells; test: Toxicity assay in human peripheral blood cells (cell counting); assay type: cell-based
Description: Peripheral blood was collected in EDTA-coated tubes from five healthy volunteers (age range: 25–30 years). Cell concentration was adjusted to 1.8 × 10^9 cells/l using RPMI-1640 medium (GIBCO BRL) containing 1% Penicillin/Streptomycin. CAM or PA–CAM conjugates were added at various concentrations and cells were cultured in triplicate under a humidified 5% CO2 atmosphere for 5 days, at 37°C. In parallel, cells were cultured in the absence of CAM or PA–CAM conjugates (control cultures). Counting of cells was performed daily in a CELL-DYN 3700 Hematology Analyzer (Abbott, USA) and values were expressed as a percentage of cells measured in control cultures.
Figure S1. Toxicity assays in human peripheral blood cells. Peripheral blood was collected in EDTA-coated tubes from 5 healthy volunteers (age range: 25-30 years). Cell concentration was adjusted to 1.8×10^9 cells/l using RPMI-1640 medium (GIBCO BRL) containing 1% penicillin/streptomycin. CAM or compound 4 was added at final concentrations equal to 30 or 60 μM and cells were cultured in triplicate under a humidified 5% CO2 atmosphere for 5 days, at 37°C. Control cultures were carried out in the absence of CAM or compound 4. Cultures were counted daily in a CELL-DYN 3700 Hematology Analyzer and values are expressed as a percentage of cells measured in control cultures.

[2] = test system: complex C (poly(U)-programmed ribosomes from E. coli bearing Ac[3H]Phe-tRNA at the P-site), peptidyl transferase; parameters: method as in PMID 12930958; settings: cited from earlier work
[3] = test system: complex C (poly(U)-programmed ribosomes from E. coli bearing Ac[3H]Phe-tRNA at the P-site), peptidyl transferase; test: Inhibition of AcPhe-puromycin synthesis (puromycin reaction, peptide bond formation); assay type: biochemical; settings: for Ki: 25°C, buffer A
Description: Isolation of 70S ribosomes from E. coli K12 cells and preparation of Ac[^3H]Phe-tRNA^Phe charged to 80% were performed, as described previously ([23]). The post-translocation complex of poly(U)-programmed ribosomes (complex C), bearing tRNA^Phe at the E-site and Ac[^3H]Phe-tRNA at the P-site was prepared in buffer A (100 mM Tris-HCl pH 7.2, 6 mM (CH3COO)2Mg, 100 mM NH4Cl and 6 mM 2-mercaptoethanol). The percentage of active ribosomes in AcPhe-tRNA binding was 72%. This ribosomal population was more than 90% reactive toward puromycin.
The reaction between complex C and excess puromycin (S), a pseudo-substrate which binds to the ribosomal A-site, was performed at 25°C in buffer A and analyzed as described in detail elsewhere ([11]). Briefly, since the reaction followed first-order kinetics, the first-order rate constant kobs at each concentration of puromycin was determined by fitting the corrected x-values into Equation ([1]), (1) where x is the product Ac[^3H]Phe-puromycin expressed as the percentage of complex C radioactivity added in the reaction mixture and t the time of the reaction. kobs is related to the puromycin concentration, [S], by the relationship, (2) where kcat is the catalytic rate constant of PTase and KS the affinity constant of puromycin for complex C.
In the presence of CAM–polyamine conjugates, biphasic logarithmic time plots were obtained. The slope of the straight line through the origin was taken as the value of the apparent rate constant, kobs(early), at the early phase of the reaction, while the slope of the second straight line was taken as the value of the rate constant, kobs(late), at the late phase of the reaction.

[4] = test system: central loop of Domain V of 23S rRNA, E. coli ribosomes; test: Time-resolved footprinting of PA–CAM conjugates bound to ribosomes (DMS, kethoxal, CMCT probing, primer extension); assay type: binding; settings: conjugate at 50 × Ki, 25°C, ratio to control lane R
Description: Complexes RI and R*I were then probed at 37°C for 10 min with DMS, kethoxal or CMCT, as described previously ([30]). The modified sites in 23S rRNA were then analyzed by primer extension with reverse transcriptase, according to Moazed et al. ([30]). […] Extension products were run on 6% polyacrylamide/7M urea gels. Identification of the modified nucleotides, quantitative scanning of the gels and normalization of the band intensities were made as previously described ([4]). The values indicated in Table 2 denote the ratio between the normalized intensity of a band of interest and the normalized intensity of the corresponding band in the control lane (ribosomes non-treated with drugs).

## O=C(N[C@H](CO)[C@H](O)c1ccc([N+](=O)[O-])cc1)C(Cl)Cl [CAM, Chloramphenicol]
wild-type E. coli; WT-E. coli, LB medium, 37°C
  IC50: 6.2 ± 0.5 µM
wild-type E. coli
  IC50/IC50(puro): 1.17 ± 0.13
wild-type S. aureus; WT-S. aureus, LB medium, 37°C
  IC50: 3.1 ± 0.3 µM
[1]; 30 μM for 24 or 48 h
  effects on other types of leukocytes: negligible
  reduction in the viability of neutrophils: 20%
[2]
  koff: 0.0165 ± 0.00067 s⁻¹
[2]; early phase
  Ki: 3.1 ± 0.3 µM
[2]; late phase
  Ki: 0.88 ± 0.07 µM

## NCCCN(CCCCN(Cc1ccccc1)Cc1ccccc1)C(=O)CCC(=O)N[C@H](CO)[C@H](O)c1ccc([N+](=O)[O-])cc1 [Compound 4]
[3]; early phase of the reaction (encounter complex CI)
  Ki: 0.975 µM and 0.98 µM
[3]; late phase of the reaction (complex C*I)
  Ki: 0.28 ± 0.03 µM
[3]; overall two-step inhibition of the puromycin reaction
  potency relative to CAM, based on Kik7/(k6 + k7): 3 fold
[4]; R*I binding state (3 min)
  Relative reactivity of nucleoside A2058: 1.25 ± 0.09^b,c
  Relative reactivity of nucleoside A2059: 0.60 ± 0.03^b,c
  Relative reactivity of nucleoside A2062: 0.52 ± 0.02^b,c
  Relative reactivity of nucleoside A2451: 0.53 ± 0.05^b
  Relative reactivity of nucleoside A2602: 0.88 ± 0.08
  Relative reactivity of nucleoside G2505: 0.35 ± 0.02^b,c
  Relative reactivity of nucleoside U2506: 0.65 ± 0.04^b
  Relative reactivity of nucleoside U2585: 0.45 ± 0.02^b,c
  Relative reactivity of nucleoside U2609: 1.00 ± 0.07
[4]; RI binding state (2 s)
  Relative reactivity of nucleoside A2058: 1.00 ± 0.05
  Relative reactivity of nucleoside A2059: 1.00 ± 0.06
  Relative reactivity of nucleoside A2062: 1.00 ± 0.05
  Relative reactivity of nucleoside A2451: 0.48 ± 0.02^b
  Relative reactivity of nucleoside A2602: 1.00 ± 0.10
  Relative reactivity of nucleoside G2505: 0.65 ± 0.05^b
  Relative reactivity of nucleoside U2506: 0.70 ± 0.05^b
  Relative reactivity of nucleoside U2609: 1.00 ± 0.09
wild-type E. coli
  IC50: 9.4 ± 0.8 µM
  IC50/IC50(puro): 5.60 ± 0.76
wild-type S. aureus
  IC50: 4.7 ± 0.5 µM
[1]; 30 μM for 24 or 48 h
  effects on other types of leukocytes: negligible
[1]; 120 h culture period
  effect on the viability of human monocytes and lymphocytes: little or no effect
  toxicity to neutrophils: moderate and transient toxicity
